Measurements: patent US20260103474A1, “NOVEL COMPOUNDS FOR THE DIAGNOSIS OF TDP-43 PROTEINOPATHIES” (AC IMMUNE SA, priority 2022, published 2026)
Read-outs that look alike come from different tables or passages of the source.

Tests used:
[1] = target: T1, Human brain derived TDP-43 aggregates (Homo sapiens, UniProt Q13148); test: Micro-radiobinding competition assay for binding affinity to TDP-43; conditions: for Ki: 0.24 nM to 2 μM vs tritiated reference ligand at 40 nM; for Human brain derived TDP-43 aggregates Mean % competition at 250 nM: non-radiolabeled compound at 250 nM vs tritiated reference ligand at 40 nM; for Human brain derived TDP-43 aggregates Mean % competition at 250 nM / Human brain derived TDP-43 aggregates Mean % competition at 2 μM: FTD sarkosyl-insoluble brain extracts; for Human brain derived TDP-43 aggregates Mean % competition at 2 μM: non-radiolabeled compound at 2 μM vs tritiated reference ligand at 40 nM
T1 construct: Human FTD sarkosyl-insoluble brain extracts were spotted onto microarray slides
T1 sequence (Q13148 261-414 limits assumed): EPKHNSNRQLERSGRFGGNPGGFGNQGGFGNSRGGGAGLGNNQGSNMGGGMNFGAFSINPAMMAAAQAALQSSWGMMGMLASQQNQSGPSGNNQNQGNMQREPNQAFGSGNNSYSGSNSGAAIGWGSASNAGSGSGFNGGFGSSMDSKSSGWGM
Experimental: Human brain extracts were prepared as described in Laferriere et al., 2019, Nature Neurosc. A sample of brain tissue (frontal or temporal cortex) was homogenized at 1:4 (w/v) ratio in the homogenization-solubilization (HS) buffer at 4° C. using tissue homogenizer (Precellys) with CKmix homogenization tubes. The following sequence was used for homogenization: 3 cycles of 30 seconds at 5000 rpm (with 15 seconds pause between each cycle). Homogenized samples were aliquoted and stored at −80° C. in 1.5 mL low protein binding tubes.
Brain homogenates were thawed on ice and resuspended in HS buffer to obtain a final concentration of 2% sarkosyl, 1 unit/μL Benzonase and 1 mM MgCl2. The samples were then incubated at 37° C. under constant shaking at 600 rpm on a thermomixer for 45 minutes (min). The supernatants were collected in a new tube (sarkosyl-soluble fraction, S1). The pellet was resuspended in 1000 μL of myelin floatation buffer and centrifuged at 20,000 g for 60 min at 4° C. The supernatant was carefully removed to remove all the floating lipids. This step was repeated if all the lipids could not be removed in a single step. The pellet was subsequently washed with Phosphate-Buffered Saline (PBS) and centrifuged for 30 min at 20,000 g at 4° C. The final pellet was resuspended in 200 μL PBS and stored at −80° C. (sarkosyl-insoluble fraction). The samples were analyzed by immunoblotting in denaturing conditions.
Human FTD sarkosyl-insoluble brain extracts were spotted onto microarray slides. The slides were incubated with a tritiated reference ligand at 40 nM, and the example compounds (non-radiolabeled) at 2 μM and 250 nM. […] After incubation, slides were washed and scanned by a real-time autoradiography system (BeaQuant, ai4R). Quantification of the signal was performed by using the Beamage image analysis software (ai4R). Non-specific signal was determined with an excess of non-radiolabeled reference compound (2 μM) and specific binding was calculated by subtracting the non-specific signal from the total signal. Competition was calculated as percent, where 0% was defined as the specific binding in the presence of vehicle and 100% as the values obtained in the presence of excess of the non-radiolabeled reference compound. Ki values were calculated in GraphPad Prism8 by applying a nonlinear regression curve fit using a one site, specific binding model. Measurements were performed with at least two technical replicates in the two-concentration competition experiment and with one technical replicate in the experiments including a range of concentrations. For compounds tested in more than one experiment, the mean of the replicates or Ki values in independent experiments is reported.

[2] = target: T2, Abeta (Homo sapiens, UniProt P05067); test: Radiobinding competition assay using Abeta reference compound on AD insoluble fraction of brain homogenates; format: binding; conditions: against [3H]Abeta reference compound
T2 construct: an AD donor with confirmed burden of Tau and Abeta aggregates; from tissue; host or cells: frontal cortex of a human AD donor, Triton/sucrose-insoluble fraction
T2 sequence (P05067 672-713 limits assumed): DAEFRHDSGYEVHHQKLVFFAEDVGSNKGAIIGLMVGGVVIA
Experimental: Approximately 4 g of frozen tissue block from frontal cortex brain region was used from an AD donor with confirmed burden of Tau and Abeta aggregates. The tissue was homogenized in three volumes (1:3 w/v) of high salt buffer (50 mM Tris-HCl pH 7.5, 750 mM NaCl, 5 mM EDTA) supplemented with protease inhibitors (Complete; Roche 11697498001) at 4° C. with a glass Dounce homogenizer. The homogenate was transferred into polycarbonate centrifuge bottles (16×76 mm; Beckman 355603) and centrifuged at 100,000×g (38,000 RPM) in an ultracentrifuge (Beckman, XL100K) for 60 minutes at 4° C. using a pre-cooled 70.1 rotor (Beckman, 342184). Pellets were resuspended in high salt buffer supplemented with 1% Triton X-100 and homogenized at 4° C. with a syringe. The homogenates were centrifuged again at 100,000×g (38,000 RPM, 70.1 rotor) for 60 minutes at 4° C. Pellets were resuspended in high salt buffer supplemented with 1% Triton X-100 and 1 M sucrose and homogenized at 4° C. with a syringe. The homogenates were centrifuged at 100,000×g (38,000 RPM, 70.1 rotor) for 60 minutes at 4° C. The resulting pellets containing insoluble fraction were resuspended in PBS (1:2 w/v relative to starting tissue weight), aliquoted and stored at −80° C. until use.
The reaction was performed in assay buffer (50 mM Tris pH 7.5 in 0.9% NaCl, 0.1% BSA) and incubated for two hours at room temperature (RT). Samples in duplicate were then filtered under vacuum in GF/C filter plates (PerkinElmer) to trap the aggregates with the bound radioligand and washed with 100 μL ice-cold 50 mM Tris pH 7.5. The GF/C filters were then dried and scintillation liquid (UltimateGold, PerkinElmer, 6013151) was added in each well. The filters were analyzed on a Microbeta2 scintillation counter (PerkinElmer). Values for the maximal signal were obtained in the absence of non-radiolabeled compound, while 100% displacement was obtained using 1 μM of non-radiolabeled reference compound. Ki values were calculated by nonlinear regression, using a one site—fit Ki model in Prism V7 (GraphPad).

[3] = cells printed in μM, read-out: Ki on AD brain homogenates
[4] = read-out: Ki (nM) on AD brain homogenates

SMILES | Ki [1] | Human brain derived TDP-43 aggregates Mean % competition at 250 nM [1] | Human brain derived TDP-43 aggregates Mean % competition at 2 μM [1] | Ki [2, 3] | Ki [2, 4]
O=C1c2sc(-c3ccc(N4CCCC4)nc3F)nc2CCN1c1cccnc1 [Compound 9, 2-(2-fluoro-6-(pyrrolidin-1-yl)pyridin-3-yl)-5-(pyridin-3-yl)-6,7-dihydrothiazolo[5,4-c]pyridin-4(5H)-one] | 31 nM | 62% | 75% | > 1 µM | –
Nc1cc(N2CCc3nc(-c4ccc(N5CCCC5)nc4F)sc3C2=O)ccc1F [Compound 10, 5-(3-amino-4-fluorophenyl)-2-(2-fluoro-6-(pyrrolidin-1-yl)pyridin-3-yl)-6,7-dihydrothiazolo[5,4-c]pyridin-4(5H)-one] | 16 nM | 52% | 75% | – | 0.35 µM
Cn1cc(N2CCc3nc(-c4ccc(N5CC[C@@H](F)C5)nc4F)sc3C2=O)cn1 [Compound 11] | – | 73% | 102% | – | –
O=C1c2sc(-c3ccc(N4CCCC4)nc3F)nc2CCN1c1ccc(F)nc1 [Compound 12] | – | 56% | 59% | – | –
O=C1c2sc(-c3ccc(N4CC[C@@H](F)C4)nc3F)nc2CCN1c1cncnc1 [Compound 13] | – | 57% | 84% | > 1 µM | –
O=C1c2sc(-c3ccc(N4CCCC4)nc3F)nc2CCN1c1ccncc1 [Compound 14] | – | 48% | 34% | – | –
O=C1c2sc(-c3ccc(N4CC[C@@H](F)C4)nc3F)nc2CCN1c1ncccn1 [Compound 15, 2-[2-fluoro-6-[(3R)-3-fluoropyrrolidin-1-yl]-3-pyridyl]-5-pyrimidin-2-yl-6,7-dihydrothiazolo[5,4-c]pyridine-4-one] | 11 nM | 62% | 86% | > 1 µM | –
O=C1c2sc(-c3ccc(N4CC[C@H](F)C4)nc3F)nc2CCN1c1ncccn1 [Compound 16] | 5 nM | 67% | 96% | > 1 µM | –
Cn1cc(N2CCc3nc(-c4ccc(N5CCCC5)nc4F)sc3C2=O)cn1 [Compound 21] | 30 nM | 46% | 85% | – | –
O=C1c2sc(-c3ccc(N4CC[C@@H](F)C4)nc3F)nc2CCN1c1cnsc1 [Compound 22] | 54 nM | 68% | 100% | – | –
O=C1c2sc(-c3ccc(N4CCCCC4)nc3F)nc2CCN1c1ccnc(F)c1 [Compound 23, 2-(2-fluoro-6-(piperidin-1-yl)pyridin-3-yl)-5-(2-fluoropyridin-4-yl)-6,7-dihydrothiazolo[5,4-c]pyridin-4(5H)-one] | 25 nM | 73% | 104% | > 1 µM | –
O=C1c2sc(-c3ccc(N4CCC[C@@H](F)C4)nc3F)nc2CCN1c1cnsc1 [Compound 24, (R)-2-(2-fluoro-6-(3-fluoropiperidin-1-yl)pyridin-3-yl)-5-(isothiazol-4-yl)-6,7-dihydrothiazolo[5,4-c]pyridin-4(5H)-one] | 65 nM | 61% | 83% | > 1 µM | –
O=C1c2sc(-c3ccc(N4CC[C@H](F)C4)nc3F)nc2CCN1c1cnsc1 [Compound 25, (S)-2-(2-fluoro-6-(3-fluoropyrrolidin-1-yl)pyridin-3-yl)-5-(isothiazol-4-yl)-6,7-dihydrothiazolo[5,4-c]pyridin-4(5H)-one] | 48 nM | 78% | 96% | > 1 µM | –
Nc1cc(N2CCc3nc(-c4ccc(N5CC[C@H](F)C5)nc4F)sc3C2=O)ccn1 [Compound 26] | 13 nM | 55% | 91% | – | 0.318 µM
O=C1c2sc(-c3ccc(N4CCC[C@H](F)C4)nc3F)nc2CCN1c1cnsc1 [Compound 27, (S)-2-(2-fluoro-6-(3-fluoropiperidin-1-yl)pyridin-3-yl)-5-(isothiazol-4-yl)-6,7-dihydrothiazolo[5,4-c]pyridin-4(5H)-one] | 48 nM | 57% | 94% | > 1 µM | –
Nc1cc(N2CCc3nc(-c4ccc(N5CCC[C@H](F)C5)nc4F)sc3C2=O)ccn1 [Compound 29] | 43 nM | 45% | 86% | > 1 µM | –
N#Cc1c(N)cccc1N1CCc2nc(-c3ccc(N4CCC[C@@H](F)C4)nc3F)sc2C1=O [Compound 30] | 7 nM | 66% | 93% | – | –
O=C1c2sc(-c3ccc(N4CC[C@@H](F)C4)nc3F)nc2CCN1c1cscn1 [Compound 33] | 36 nM | 60% | 86% | – | –
O=C1c2sc(-c3ccc(N4CC[C@H](F)C4)nc3F)nc2CCN1c1ccnnc1 [Compound 36] | 7 nM | 66% | 75% | – | –
